From US8399518B2, “Administration of 3,5-diiodothyropropionic acid for stimulating weight loss, and/or lowering triglyceride levels, and/or treatment of metabolic syndrome” (University of Arizona Office of Technology Transfer, priority 2007, dated 2013)

Assay: Human clinical study with DITPA: weight loss in patients with a history of congestive heart failure
Type: in vivo
Conditions: maximum 26 weeks; for patients who experienced a weight loss of 2% or more: DITPA or placebo (2:1) orally, 90 mg/day increased to 180 or 360 mg/day
Protocol: Fifty-four patients with a history of congestive heart failure were administered DITPA or placebo in a 2:1 randomized and double-blinded manner for a maximum of 26 weeks. […] The patients in the study were administered DITPA orally twice per and the dose began at 90 mg/day and increased to 180 mg/day after two weeks. In half of the DITPA patients, the dose was increased further to 270 mg/day after two weeks, and then to 360 mg/day. Patients were randomized 1:1:1 to DITPA 180 mg/day, DITPA 360 mg/day, or placebo.

O=C(O)CCc1cc(I)c(Oc2ccc(O)cc2)c(I)c1 [DITPA, 3,5-diiodothyropropionic acid]
decrease in weight, overweight patients versus patients of normal body weight (oral DITPA 180 or 360 mg/day): greater decrease in weight in overweight patients than those of normal body weight | patients who experienced a weight loss of 2% or more (patients with body mass index greater than 25): 71.05% | patients who experienced a weight loss of 2% or more (patients with body mass index less than or equal to 25): 37.5%
